The subject of experiment [1] is TWJ molecular switch for ATP (B3/G12 split aptamer, with FP1 and CP1) (DNA, aptamer) TGGGATTGGAAGGAGGCGTCCGTACTCTATGAGCCTCTG/TATGAGGGGGTCCACCGTGT/AAACACGGATCCCATA
Nature of the experiment: single-molecule TIRF, transient binding of fluorescent probe. Conditions: 1× PBS; qualitative; oxygen scavenger system; surface-immobilised DNA.

The subject of experiment [2] is TWJ molecular switch for 17β-estradiol (B5/G14 split aptamer, with FP1 and CP1) (DNA, aptamer) TAGGGTGCGGCTCTGCGCATTCAATTGCTGCGCGCTGAAGCGCGGAAGCCCGTACTCTATGAGCCTCTG/GCTTCCAGCTTATTGAATTACACGCAGAGGGTACCGTGT/AAACACGGATCCCATA
Put plainly: single-molecule TIRF, fluorescent probe binding kinetics. The note with it: 1× PBS; apparent; read from calibration curve of probe kon,F and koff,F against Kd; oxygen scavenger system; surface-immobilised DNA.

On to `Nc1ncnc2c1ncn2[C@@H]1O[C@H](COP(=O)(O)OP(=O)(O)OP(=O)(O)O)[C@@H](O)[C@H]1O`, for which the binding entry in experiment [1] was “yes”.

With `C[C@]12CC[C@@H]3c4ccc(O)cc4CC[C@H]3[C@@H]1CC[C@@H]2O`, the Kd in experiment [2] is reported as 18 nM.

Values taken from paper PMC7006622 (2019).
